Here are results for 1 compound from patent US8440634B2, “Bicyclic derivatives of morphine-6-glucuronide, preparation method thereof and use of same in therapeutics” (Sanofi, priority 2008, dated 2013).

Data set [1] relates to nociceptive reflex response (tail removal caused by painful heat stimulus). Description: "Tail-Flick" test, analgesic activity. The data set is classed as in vivo, male Swiss mice. As to conditions: mice. The procedure: Tests consisting in measuring the in vivo activity of the compounds of the invention on a nociceptive reflex response were performed. In this approach, the latency of the animal's nociceptive reflex response is measured as a pain indicator.
The analgesic activity was determined by means of the “tail-flick” test in male Swiss mice (Iffa Credo). This test is based on the spontaneous nociceptive reflex of removal of the animal's tail caused by a painful heat stimulus (infrared source). The “tail-flick” test (D'Amour-Smith test, 1941, Pharmacol. Exp. Ther.; 72: 74-79) consists, after administering a product, in placing a mouse's tail at the focal point of the infrared source so as to produce a nociceptive heat stimulus (surface temperature of about 55-60° C.). The mouse's reaction time (RT) (latency between the moment when the light beam is switched on and the moment when the mouse removes its tail) was measured in duplicate at different times ranging from 20 minutes to 120 minutes after administration of the product. The heat intensity is regulated such that this removal reflex is between 0.5 and 3.5 seconds in the control animals, and arbitrarily represents the criterion for minimum analgesia (0%). Two reaction time measurements were taken before administration of the product for each mouse, to establish a baseline measurement time. A maximum time of 8 seconds was chosen as the maximum reaction time so as not to induce tissue damage by burning the animals, and arbitrarily represents the criterion for maximum analgesia (100%). The reaction time is increased by the analgesics relative to a control animal not receiving any treatment. The products were administered subcutaneously and orally at doses of between 1.25 and 30 mg/kg. […]
The percentage of analgesic activity (% MPE) is determined by the following formula: %MPE=(RTpost-administration−RTpre-administration)*100/(RTmax−RTpre-administration).

Some results are limits rather than exact numbers.

Usually melting point stands for the temperature of the solid-liquid transition. What is called ED50 is the dose at which the effect has come halfway, by size or by number of responders. Low readings indicate greater potency, high ones weaker potency. Compound `CN1CC[C@]23c4c5ccc(O)c4O[C@H]2C(O[C@@H]2OC(c4nc6n(n4)CCC(O)N6)[C@@H](O)C(O)C2O)C=CC3[C@H]1C5` (stereo partly drawn) [morphin-6-yl 5-C-(5-hydroxy-4,5,6,7-tetrahydro[1,2,4]triazolo[1,5-a]pyrimidin-2-yl)-β-D-xylopyranoside] had a melting point of 201 °C. Further, in data set [1] (Mus musculus, sc, 1 h, subcutaneous, determined 60 minutes after administration), the ED50 was under 1.25 mg/kg. Moreover, the “duration of the analgesic action” value in data set [1] (subcutaneous administration) is “more than 120 minutes”. The “maximum percentage of analgesic activity (% MPE max index)” value in data set [1] (subcutaneous, dose of 1.25 mg/kg) turned out to be 80%.
